Reference: ChEMBL document CHEMBL1201862, “PubChem BioAssay data set” (2004)
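Five compound concentrations were applied to cells in 96-well plates for 48 hours; endpoints were derived by simple linear interpolation of the resulting dose-response curve. Abbreviation: GI50, concentration required for 50% inhibition of growth.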 The source made the active and inactive calls. No stated cut-off is given here; in the data, active = GI50 up to about 1.1 µM and inactive = higher.

How the values were obtained:
Assay in all cases: NCI tumour cell line growth inhibition, 48 h
SF-539 = tested on: SF-539
MDA-MB-231 = tested on: MDA-MB-231
UACC-62 = tested on: UACC-62
SK-OV-3 = tested on: SK-OV-3
RXF 393 = tested on: RXF 393
MOLT-4 = tested on: MOLT-4
HCT-15 = tested on: HCT-15
SF-295 = tested on: SF-295
SF-268 = tested on: SF-268
RPMI-8226 = tested on: RPMI-8226
ACHN = tested on: ACHN
MDA-MB-435 = tested on: MDA-MB-435
786-0 = tested on: 786-0
UO-31 = tested on: UO-31
K562 = tested on: K562
T47D = tested on: T47D
Hs-578T = tested on: Hs-578T
UACC-257 = tested on: UACC-257
CAKI-1 = tested on: CAKI-1
HOP-92 = tested on: HOP-92

| SMILES | GI50 (SF-539) | GI50 (MDA-MB-231) | GI50 (UACC-62) | GI50 (SK-OV-3) | GI50 (RXF 393) | GI50 (MOLT-4) | GI50 (HCT-15) [µM] | GI50 (SF-295) | GI50 (SF-268) | GI50 (RPMI-8226) | GI50 (ACHN) | GI50 (MDA-MB-435) | GI50 (786-0) | GI50 (UO-31) | GI50 (K562) | GI50 (T47D) | GI50 (Hs-578T) | GI50 (UACC-257) | GI50 (CAKI-1) | GI50 (HOP-92) |
| --- | --- | --- | --- | --- | --- | --- | --- | --- | --- | --- | --- | --- | --- | --- | --- | --- | --- | --- | --- | --- |
| CCCC(C)NC(=O)c1ccc(N(C)Cc2cnc3nc(N)nc(N)c3n2)cc1 (stereo not given) | 11 µM (inactive) | 27.5 µM (inactive) | 6.3 µM (inactive) | 41.6 µM (inactive) | 26.2 µM (inactive) | 33.2 µM (inactive) | 26.4 | 27.6 µM (inactive) | 12 µM (inactive) | 91 µM (inactive) | 35.2 µM (inactive) | 11.7 µM (inactive) | 10.5 µM (inactive) | 46.1 µM (inactive) | 8 µM (inactive) | 24 µM (inactive) | 16.2 µM (inactive) | 15.9 µM (inactive) | 34 µM (inactive) | – |
| C=CCn1c(S)nnc1C12CC3CC(CC(C3)C1)C2 | > 100 µM (inactive) | > 100 µM (inactive) | 90.8 µM (inactive) | > 100 µM (inactive) | > 100 µM (inactive) | 20.9 µM (inactive) | 44.3 | 41.3 µM (inactive) | > 100 µM (inactive) | 36.7 µM (inactive) | 54.3 µM (inactive) | 48.9 µM (inactive) | > 100 µM (inactive) | 33 µM (inactive) | 25.4 µM (inactive) | 32.8 µM (inactive) | > 100 µM (inactive) | 52.2 µM (inactive) | – | – |
| COc1ccc([N+](=O)[O-])c2c(NCCCN(C)C)c(C)c(C)nc12 | > 100 µM (inactive) | 57.5 µM (inactive) | 81.3 µM (inactive) | > 100 µM (inactive) | – | > 100 µM (inactive) | 22.4 | 90.8 µM (inactive) | > 100 µM (inactive) | 31.8 µM (inactive) | > 100 µM (inactive) | > 100 µM (inactive) | > 100 µM (inactive) | > 100 µM (inactive) | 37.6 µM (inactive) | 77.3 µM (inactive) | > 100 µM (inactive) | > 100 µM (inactive) | > 100 µM (inactive) | 23.9 µM (inactive) |
| NCCCCCNOCCCN | > 100 µM (inactive) | > 100 µM (inactive) | > 100 µM (inactive) | > 100 µM (inactive) | – | > 100 µM (inactive) | > 100 | > 100 µM (inactive) | > 100 µM (inactive) | > 100 µM (inactive) | > 100 µM (inactive) | > 100 µM (inactive) | > 100 µM (inactive) | > 100 µM (inactive) | > 100 µM (inactive) | > 100 µM (inactive) | > 100 µM (inactive) | > 100 µM (inactive) | – | > 100 µM (inactive) |
| Cc1ccc2c(c1)nc(N)n[n+]2[O-] | > 100 µM (inactive) | > 100 µM (inactive) | > 100 µM (inactive) | > 100 µM (inactive) | – | > 100 µM (inactive) | > 100 | > 100 µM (inactive) | > 100 µM (inactive) | > 100 µM (inactive) | > 100 µM (inactive) | > 100 µM (inactive) | > 100 µM (inactive) | > 100 µM (inactive) | > 100 µM (inactive) | > 100 µM (inactive) | > 100 µM (inactive) | > 100 µM (inactive) | > 100 µM (inactive) | – |
| COCC1OC(Sc2ccccc2)C(O)C(OC)C1OC (stereo not given) | > 100 µM (inactive) | > 100 µM (inactive) | > 100 µM (inactive) | > 100 µM (inactive) | > 100 µM (inactive) | > 100 µM (inactive) | > 100 | > 100 µM (inactive) | > 100 µM (inactive) | – | > 100 µM (inactive) | > 100 µM (inactive) | > 100 µM (inactive) | > 100 µM (inactive) | > 100 µM (inactive) | > 100 µM (inactive) | > 100 µM (inactive) | > 100 µM (inactive) | > 100 µM (inactive) | – |
| O=S(=O)([C-]([I+]c1ccccc1)S(=O)(=O)C(F)(F)C(F)(F)C(F)(F)C(F)(F)F)C(F)(F)C(F)(F)C(F)(F)C(F)(F)F | 15.5 µM (inactive) | 24.1 µM (inactive) | 17.9 µM (inactive) | 16.7 µM (inactive) | – | 3.51 µM (inactive) | 15.2 | 16.6 µM (inactive) | 18.5 µM (inactive) | 3.54 µM (inactive) | 6.49 µM (inactive) | 19.3 µM (inactive) | 14.9 µM (inactive) | 13.2 µM (inactive) | 4.11 µM (inactive) | 11.1 µM (inactive) | 20.1 µM (inactive) | 17.6 µM (inactive) | 13.2 µM (inactive) | 8.77 µM (inactive) |
| CN(C)CCNc1nc(-c2ccc3ccccc3c2)nc2[nH]cnc12 | – | 11.2 µM (inactive) | 10.8 µM (inactive) | 7.48 µM (inactive) | 11.6 µM (inactive) | 3.55 µM (inactive) | 5.82 | 13.7 µM (inactive) | 8.22 µM (inactive) | 22.2 µM (inactive) | 2.73 µM (inactive) | 11 µM (inactive) | 10 µM (inactive) | 3.03 µM (inactive) | 21.1 µM (inactive) | 12.5 µM (inactive) | 5.18 µM (inactive) | 6.9 µM (inactive) | 4.89 µM (inactive) | – |
| COC(O)C(=O)c1c2c(cc3c1CCC3)CCC2 (stereo not given) | > 100 µM (inactive) | > 100 µM (inactive) | > 100 µM (inactive) | > 100 µM (inactive) | – | > 100 µM (inactive) | > 100 | > 100 µM (inactive) | > 100 µM (inactive) | 55.1 µM (inactive) | > 100 µM (inactive) | > 100 µM (inactive) | > 100 µM (inactive) | > 100 µM (inactive) | 80.9 µM (inactive) | > 100 µM (inactive) | > 100 µM (inactive) | > 100 µM (inactive) | > 100 µM (inactive) | – |
| O=S(=O)(c1cc(Cl)ccc1Cl)N1CCN(S(=O)(=O)c2cc(Cl)ccc2Cl)CC1 | > 100 µM (inactive) | > 100 µM (inactive) | 0.489 µM (active) | – | > 100 µM (inactive) | > 100 µM (inactive) | > 100 | > 100 µM (inactive) | > 100 µM (inactive) | – | > 100 µM (inactive) | > 100 µM (inactive) | > 100 µM (inactive) | > 100 µM (inactive) | > 100 µM (inactive) | > 100 µM (inactive) | 19.8 µM (inactive) | > 100 µM (inactive) | > 100 µM (inactive) | > 100 µM (inactive) |
| O=C(Oc1c(I)ccccc1=O)c1ccc([N+](=O)[O-])cc1 | 17.9 µM (inactive) | 23.3 µM (inactive) | 22.6 µM (inactive) | – | 3.08 µM (inactive) | – | 12.9 | 23.2 µM (inactive) | 15.5 µM (inactive) | 23.2 µM (inactive) | 24.8 µM (inactive) | 19.4 µM (inactive) | 26.9 µM (inactive) | 17.3 µM (inactive) | 24.2 µM (inactive) | 0.0785 µM (active) | 24.8 µM (inactive) | 17 µM (inactive) | 24.4 µM (inactive) | – |
| O=C(C[N+]12CN3CN(CN(C3)C1)C2)c1ccc(-c2ccccc2)cc1 | – | 16.2 µM (inactive) | 16.1 µM (inactive) | – | 19.1 µM (inactive) | 16.7 µM (inactive) | 30.1 | 19.8 µM (inactive) | 19.4 µM (inactive) | – | 21.4 µM (inactive) | 36.5 µM (inactive) | 17.7 µM (inactive) | 23.4 µM (inactive) | 15 µM (inactive) | 37.2 µM (inactive) | 32.7 µM (inactive) | 15.8 µM (inactive) | 43.9 µM (inactive) | 33.5 µM (inactive) |
| CO[C@]12C#CC=CC#C[C@@H](O)[C@]3(CCC1)O[C@@]23c1cccc(O)c1 | – | > 100 µM (inactive) | 52.6 µM (inactive) | > 100 µM (inactive) | > 100 µM (inactive) | 54.8 µM (inactive) | > 100 | > 100 µM (inactive) | > 100 µM (inactive) | > 100 µM (inactive) | > 100 µM (inactive) | > 100 µM (inactive) | > 100 µM (inactive) | > 100 µM (inactive) | 97.3 µM (inactive) | > 100 µM (inactive) | > 100 µM (inactive) | > 100 µM (inactive) | > 100 µM (inactive) | – |
| Nc1ccccc1C(=O)CCc1c[nH]c2ccccc12 | 30.3 µM (inactive) | > 100 µM (inactive) | 25.1 µM (inactive) | 27 µM (inactive) | – | > 100 µM (inactive) | 93.3 | 19.4 µM (inactive) | 43.4 µM (inactive) | > 100 µM (inactive) | 53.7 µM (inactive) | > 100 µM (inactive) | 46.2 µM (inactive) | 5.4 µM (inactive) | > 100 µM (inactive) | 5.53 µM (inactive) | 24.2 µM (inactive) | > 100 µM (inactive) | – | 13.3 µM (inactive) |
| COc1cccc2c1C(=O)c1c(O)c3c(c(O)c1C2=O)CC(O)(C(O)CO)CC3OC1CC2C(OC3COCC(C#N)N32)C(C)O1 (stereo not given) | < 0.01 µM (active) | < 0.01 µM (active) | < 0.01 µM (active) | < 0.01 µM (active) | < 0.01 µM (active) | < 0.01 µM (active) | < 0.01 | < 0.01 µM (active) | < 0.01 µM (active) | – | < 0.01 µM (active) | < 0.01 µM (active) | < 0.01 µM (active) | < 0.01 µM (active) | < 0.01 µM (active) | < 0.01 µM (active) | < 0.01 µM (active) | < 0.01 µM (active) | – | < 0.01 µM (active) |
| CC(N/N=C(\S)N1CCCCCC1)c1cccnn1 (stereo not given) | 0.194 µM (active) | 0.553 µM (active) | 0.264 µM (active) | 0.409 µM (active) | 0.228 µM (active) | 0.111 µM (active) | 0.386 | 0.403 µM (active) | 0.337 µM (active) | 0.155 µM (active) | 0.294 µM (active) | 0.61 µM (active) | 0.394 µM (active) | 0.526 µM (active) | 0.2 µM (active) | 0.163 µM (active) | 13.2 µM (inactive) | 0.2 µM (active) | 0.395 µM (active) | – |
